Test results published in ChEMBL document CHEMBL4373688 (Medchemcomm, 2019).

Key:
[1] = target: Vascular endothelial growth factor receptor 2 (Homo sapiens, UniProt P35968)
Description: Inhibition of human VEGFR2 (805 to 1171 residues) by ELISA

[2] = target: Fibroblast growth factor receptor 3 (Homo sapiens, UniProt P22607); assay: biochemical; type: cell-based, Sf9
Description: Inhibition of wild type His-tagged human FGFR3 (455 to 763 residues) expressed in Sf9 insect cells by ELISA

Homo sapiens = organism: Homo sapiens; assay: Selectivity ratio of IC50 for wild type His-tagged human FGFR3 (455 to 763 residues) expressed in Sf9 insect cells to IC50 for human VEGFR2 (805 to 1171 residues)

Chain of Fibroblast growth factor receptor 3 (P22607 whole entry, the tested form may be a part): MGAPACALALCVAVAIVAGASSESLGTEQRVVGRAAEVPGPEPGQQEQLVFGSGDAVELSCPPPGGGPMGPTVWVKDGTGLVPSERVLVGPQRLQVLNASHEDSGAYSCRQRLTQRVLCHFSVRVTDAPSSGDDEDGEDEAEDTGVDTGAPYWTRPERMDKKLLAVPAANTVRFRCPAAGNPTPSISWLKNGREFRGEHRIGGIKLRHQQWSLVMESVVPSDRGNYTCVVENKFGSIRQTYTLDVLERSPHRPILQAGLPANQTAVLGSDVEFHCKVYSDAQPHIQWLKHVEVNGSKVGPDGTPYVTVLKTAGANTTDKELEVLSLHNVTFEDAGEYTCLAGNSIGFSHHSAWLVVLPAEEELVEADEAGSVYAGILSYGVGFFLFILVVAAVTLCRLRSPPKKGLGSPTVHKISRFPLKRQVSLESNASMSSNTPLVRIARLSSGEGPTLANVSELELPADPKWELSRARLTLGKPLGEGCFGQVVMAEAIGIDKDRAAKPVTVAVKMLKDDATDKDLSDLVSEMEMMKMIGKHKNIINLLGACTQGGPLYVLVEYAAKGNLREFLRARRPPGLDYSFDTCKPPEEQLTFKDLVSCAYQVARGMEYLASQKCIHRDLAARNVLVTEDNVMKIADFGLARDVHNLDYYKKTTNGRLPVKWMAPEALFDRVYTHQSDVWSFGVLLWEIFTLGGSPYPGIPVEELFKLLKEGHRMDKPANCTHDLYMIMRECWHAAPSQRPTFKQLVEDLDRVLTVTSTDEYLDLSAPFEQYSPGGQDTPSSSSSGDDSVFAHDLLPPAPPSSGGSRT
Chain of Vascular endothelial growth factor receptor 2 (P35968 whole entry): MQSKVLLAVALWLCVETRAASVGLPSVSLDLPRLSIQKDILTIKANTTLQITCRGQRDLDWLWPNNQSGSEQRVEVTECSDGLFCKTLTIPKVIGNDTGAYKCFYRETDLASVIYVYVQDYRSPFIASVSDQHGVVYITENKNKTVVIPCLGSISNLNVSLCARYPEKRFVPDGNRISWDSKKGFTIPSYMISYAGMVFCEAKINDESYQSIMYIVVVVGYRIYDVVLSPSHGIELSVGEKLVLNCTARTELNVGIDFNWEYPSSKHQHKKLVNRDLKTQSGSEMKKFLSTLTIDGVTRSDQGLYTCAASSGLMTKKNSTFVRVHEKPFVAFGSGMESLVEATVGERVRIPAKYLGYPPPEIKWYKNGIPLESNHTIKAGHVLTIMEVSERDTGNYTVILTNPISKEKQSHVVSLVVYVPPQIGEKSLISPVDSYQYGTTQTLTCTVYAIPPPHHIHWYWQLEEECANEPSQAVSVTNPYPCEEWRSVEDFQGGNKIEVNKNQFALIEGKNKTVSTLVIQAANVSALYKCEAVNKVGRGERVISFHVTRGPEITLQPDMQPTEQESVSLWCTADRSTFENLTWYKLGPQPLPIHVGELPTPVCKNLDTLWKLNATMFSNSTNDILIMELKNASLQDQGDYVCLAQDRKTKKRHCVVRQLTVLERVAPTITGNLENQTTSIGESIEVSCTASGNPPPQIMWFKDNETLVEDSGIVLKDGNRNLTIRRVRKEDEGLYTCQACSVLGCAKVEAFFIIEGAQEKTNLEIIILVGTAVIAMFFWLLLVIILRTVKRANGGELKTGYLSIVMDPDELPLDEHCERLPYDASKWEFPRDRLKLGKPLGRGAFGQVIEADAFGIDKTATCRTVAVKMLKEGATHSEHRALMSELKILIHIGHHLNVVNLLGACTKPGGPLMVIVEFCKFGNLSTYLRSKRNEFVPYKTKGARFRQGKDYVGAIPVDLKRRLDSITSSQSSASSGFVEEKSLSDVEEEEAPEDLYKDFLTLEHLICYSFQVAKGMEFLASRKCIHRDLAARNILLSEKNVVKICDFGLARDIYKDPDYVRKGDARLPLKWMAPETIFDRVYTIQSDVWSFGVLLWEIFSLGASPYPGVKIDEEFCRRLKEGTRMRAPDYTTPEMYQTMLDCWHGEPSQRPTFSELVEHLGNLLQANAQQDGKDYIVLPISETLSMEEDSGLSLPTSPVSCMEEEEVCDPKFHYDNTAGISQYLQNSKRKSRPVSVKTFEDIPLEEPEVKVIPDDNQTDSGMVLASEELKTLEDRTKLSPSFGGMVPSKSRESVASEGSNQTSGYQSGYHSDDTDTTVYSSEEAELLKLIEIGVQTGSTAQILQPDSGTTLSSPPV

IC50 [1] [µM]	IC50 [2] [µM]	SMILES	Ratio IC50 (Homo sapiens)
0.56	0.012	COc1cc(Nc2ccc3ncc(-c4cnn(C)c4)nc3c2)cc(OC)c1	
140	120	Nc1ccc2nccnc2c1	
0.46	6.5	Cn1cc(-c2cnc3ccc(Cl)cc3n2)cn1	
5.5	0.33	COc1ccc(CNc2ccc3ncc(-c4cnn(C)c4)nc3c2)c(OC)c1	15
